According to US11524951B2, “2-(2,4,5-substituted-anilino)pyrimidine compounds” (AstraZeneca AB, priority 2011, dated 2022):

Tests used:
Format in all cases: cell-based
[1] = target: T1, Wild-type EGFR (Homo sapiens, UniProt P00533); assay: Wild-type EGFR cellular phosphorylation assay; conditions: LoVo human colon cells; endogenous p-EGFR in cell lysates by ELISA; 2 h with compound, then stimulated 100 ng/ml for 10 minutes; read-out: Assay 3 (IC50)
T1 construct: Assays to measure cellular phosphorylation of endogenous p-EGFR in cell lysates; endogenous in cells; host or cells: LoVo (human colon cell line)
Protocol: Assay 3: Wild-Type EGFR Cellular Phosphorylation Assay
The human colon cell line LoVo were obtained from the American type Culture Collection. […] Cells were grown in a humidified incubator at 37° C. with 5% CO2. Assays to measure cellular phosphorylation of endogenous p-EGFR in cell lysates were carried out according to the protocol described in the R&D Systems DuoSet IC Human Phospho-EGF R ELISA (R&D Systems catalogue number #DYC1095). 40 μL of cells were seeded (15000 cells/well) in growth medium in Corning black, clear-bottomed 384-well plates and incubated at 37° C. with 5% CO2 overnight. […] Plates were incubated for a further 2 h then stimulated with 100 ng/ml for 10 minutes and following aspiration of medium, 40 μL 1× lysis buffer was added to each well. Greiner black high bind 384-well plates were coated with capture antibody and then blocked with 3% BSA. […] Following aspiration and washing of the plates with PBS, 20 μL of detection antibody were added and incubated for 2 hours. […] The data obtained with each compound was exported into a suitable software package (such as Origin) to perform curve fitting analysis.

[2] = target: T2, L858R/T790M EGFR (Homo sapiens, UniProt P00533, L858R/T790M); assay: L858R/T790M EGFR (double mutant) cellular phosphorylation assay; conditions: NCI-H1975 human lung cells; endogenous p-EGFR in cell lysates by ELISA; 2 h with compound
T2 construct: Assays to measure cellular phosphorylation of endogenous p-EGFR in cell lysates; endogenous in cells; host or cells: NCI-H1975 (human lung cell line)
Protocol: Assay 2: L858R/T790M EGFR (Double Mutant) Cellular Phosphorylation Assay
The human lung cell lines NCI-H1975 were obtained from the American type Culture Collection. […] Cells were grown in a humidified incubator at 37° C. with 5% CO2.
Assays to measure cellular phosphorylation of endogenous p-EGFR in cell lysates were carried out according to the protocol described in the R&D Systems DuoSet IC Human Phospho-EGF R ELISA (R&D Systems catalogue number #DYC1095).
40 μL of cells were seeded (10000 cells/well) in growth medium in Corning black, clear-bottomed 384-well plates and incubated at 37° C. with 5% CO2 overnight. […] Plates were incubated for a further 2 h and following aspiration of medium, 40 μL 1× lysis buffer was added to each well. Greiner black high bind 384-well plates were coated with capture antibody and then blocked with 3% BSA. Following removal of block, 15 μL of lysate were transferred to the Greiner black high bind 384-well plates and incubated for 2 hours. Following aspiration and washing of the plates with PBS, 20 μL of detection antibody were added and incubated for 2 hours. […] 20 μL QuantaBlu stop solution were added to plates and fluorescence read on an Envision plate reader using
The data obtained with each compound was exported into a suitable software package (such as Origin) to perform curve fitting analysis.

[3] = target: T3, Exon19 deletion EGFR (Homo sapiens, UniProt P00533, DEL746-750); assay: Exon19 deletion EGFR (activating single mutant) cellular phosphorylation assay; conditions: PC9 human lung cells (Exon 19 deletion EGFR); endogenous p-EGFR in cell lysates by ELISA; 2 h with compound; read-out: Assay 1 (IC50)
T3 construct: Assays to measure cellular phosphorylation of endogenous p-EGFR in cell lysates; endogenous in cells; host or cells: PC9 (human lung cell line)
Protocol: Assay 1: Exon19 Deletion EGFR (Activating Single Mutant) Cellular Phosphorylation Assay
The human lung cell line PC9 (Exon 19 deletion EGFR) were obtained from the American type Culture Collection. […] Cells were grown in a humidified incubator at 37° C. with 5% CO2. Assays to measure cellular phosphorylation of endogenous p-EGFR in cell lysates were carried out according to the protocol described in the R&D Systems DuoSet IC Human Phospho-EGF R ELISA (R&D Systems catalogue number #DYC1095). 40 μL of cells were seeded (10000 cells/well) in growth medium in Corning black, clear-bottomed 384-well plates and incubated at 37° C. with 5% CO2 overnight. […] Plates were incubated for a further 2 h, then following aspiration of medium, 40 μL 1× lysis buffer was added to each well. Greiner black high bind 384-well plates were coated with capture antibody and then blocked with 3% BSA. Following removal of block, […], of lysate were transferred to the Greiner black high bind 384-well plates and incubated for 2 hours. Following aspiration and washing of the plates with PBS, 20 μL of detection antibody were added and incubated for 2 hours. […] The data obtained with each compound was exported into a suitable software package (such as Origin) to perform curve fitting analysis.

T1 sequence (P00533 25-1210): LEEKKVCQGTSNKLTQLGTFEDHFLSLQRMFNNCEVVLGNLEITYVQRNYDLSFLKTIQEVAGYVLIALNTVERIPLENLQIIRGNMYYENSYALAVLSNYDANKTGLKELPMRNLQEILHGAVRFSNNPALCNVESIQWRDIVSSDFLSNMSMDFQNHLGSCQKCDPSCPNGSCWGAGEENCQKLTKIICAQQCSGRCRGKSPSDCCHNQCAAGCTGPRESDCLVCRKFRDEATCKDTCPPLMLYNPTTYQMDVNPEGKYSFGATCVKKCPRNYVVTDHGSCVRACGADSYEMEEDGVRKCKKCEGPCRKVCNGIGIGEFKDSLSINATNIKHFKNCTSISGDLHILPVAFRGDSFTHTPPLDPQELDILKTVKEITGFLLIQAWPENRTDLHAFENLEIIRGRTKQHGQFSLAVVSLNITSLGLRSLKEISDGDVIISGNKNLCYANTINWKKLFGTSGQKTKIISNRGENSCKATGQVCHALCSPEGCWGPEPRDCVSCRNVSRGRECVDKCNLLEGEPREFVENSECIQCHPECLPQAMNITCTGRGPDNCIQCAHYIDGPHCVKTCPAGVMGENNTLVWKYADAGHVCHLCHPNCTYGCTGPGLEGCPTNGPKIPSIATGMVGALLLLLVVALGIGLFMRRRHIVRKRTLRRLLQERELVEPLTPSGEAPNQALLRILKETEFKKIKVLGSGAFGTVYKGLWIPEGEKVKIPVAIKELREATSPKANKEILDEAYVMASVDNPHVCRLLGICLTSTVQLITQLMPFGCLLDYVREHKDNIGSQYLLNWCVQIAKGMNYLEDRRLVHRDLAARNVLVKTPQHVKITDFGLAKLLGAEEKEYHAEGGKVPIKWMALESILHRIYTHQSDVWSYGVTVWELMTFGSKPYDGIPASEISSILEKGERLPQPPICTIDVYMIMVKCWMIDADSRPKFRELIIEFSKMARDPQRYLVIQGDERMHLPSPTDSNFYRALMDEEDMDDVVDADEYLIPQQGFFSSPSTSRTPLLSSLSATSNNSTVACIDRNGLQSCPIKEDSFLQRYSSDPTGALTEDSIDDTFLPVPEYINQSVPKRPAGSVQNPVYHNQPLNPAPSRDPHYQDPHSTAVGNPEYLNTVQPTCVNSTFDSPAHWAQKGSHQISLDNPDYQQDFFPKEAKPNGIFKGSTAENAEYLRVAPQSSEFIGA
T3 sequence (P00533 with tags, fused parts or gaps DEL746-750): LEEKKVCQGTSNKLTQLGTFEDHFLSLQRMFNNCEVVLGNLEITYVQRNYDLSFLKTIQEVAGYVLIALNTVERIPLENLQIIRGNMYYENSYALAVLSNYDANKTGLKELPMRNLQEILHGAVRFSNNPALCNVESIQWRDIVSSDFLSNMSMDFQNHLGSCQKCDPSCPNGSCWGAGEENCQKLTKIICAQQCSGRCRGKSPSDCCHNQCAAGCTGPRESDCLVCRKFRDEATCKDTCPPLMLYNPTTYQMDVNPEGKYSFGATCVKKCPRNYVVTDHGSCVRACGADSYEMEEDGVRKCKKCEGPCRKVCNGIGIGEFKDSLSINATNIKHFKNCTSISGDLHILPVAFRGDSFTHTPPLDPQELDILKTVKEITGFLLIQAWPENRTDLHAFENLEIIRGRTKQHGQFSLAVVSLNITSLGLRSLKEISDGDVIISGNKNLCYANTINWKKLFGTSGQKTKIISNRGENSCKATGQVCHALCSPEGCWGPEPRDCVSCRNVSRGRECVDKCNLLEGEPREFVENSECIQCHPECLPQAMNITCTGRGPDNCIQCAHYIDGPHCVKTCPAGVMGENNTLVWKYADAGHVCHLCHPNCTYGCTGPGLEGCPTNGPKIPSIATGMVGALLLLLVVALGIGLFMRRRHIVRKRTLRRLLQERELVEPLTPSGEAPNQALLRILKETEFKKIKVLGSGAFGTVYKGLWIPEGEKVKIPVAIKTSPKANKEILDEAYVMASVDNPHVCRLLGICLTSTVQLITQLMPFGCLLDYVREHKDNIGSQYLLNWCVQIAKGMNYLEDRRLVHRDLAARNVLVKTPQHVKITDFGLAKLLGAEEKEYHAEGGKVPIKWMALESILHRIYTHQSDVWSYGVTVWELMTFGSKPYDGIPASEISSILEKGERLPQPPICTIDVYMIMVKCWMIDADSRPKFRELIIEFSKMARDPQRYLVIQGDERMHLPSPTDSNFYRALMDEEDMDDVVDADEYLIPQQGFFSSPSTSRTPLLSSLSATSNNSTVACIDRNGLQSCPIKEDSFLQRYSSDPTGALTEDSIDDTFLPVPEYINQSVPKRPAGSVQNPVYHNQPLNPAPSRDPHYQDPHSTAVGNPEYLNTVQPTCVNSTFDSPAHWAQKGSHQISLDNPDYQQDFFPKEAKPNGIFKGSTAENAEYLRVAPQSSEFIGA
T2 sequence (P00533 25-1210 T790M/L858R): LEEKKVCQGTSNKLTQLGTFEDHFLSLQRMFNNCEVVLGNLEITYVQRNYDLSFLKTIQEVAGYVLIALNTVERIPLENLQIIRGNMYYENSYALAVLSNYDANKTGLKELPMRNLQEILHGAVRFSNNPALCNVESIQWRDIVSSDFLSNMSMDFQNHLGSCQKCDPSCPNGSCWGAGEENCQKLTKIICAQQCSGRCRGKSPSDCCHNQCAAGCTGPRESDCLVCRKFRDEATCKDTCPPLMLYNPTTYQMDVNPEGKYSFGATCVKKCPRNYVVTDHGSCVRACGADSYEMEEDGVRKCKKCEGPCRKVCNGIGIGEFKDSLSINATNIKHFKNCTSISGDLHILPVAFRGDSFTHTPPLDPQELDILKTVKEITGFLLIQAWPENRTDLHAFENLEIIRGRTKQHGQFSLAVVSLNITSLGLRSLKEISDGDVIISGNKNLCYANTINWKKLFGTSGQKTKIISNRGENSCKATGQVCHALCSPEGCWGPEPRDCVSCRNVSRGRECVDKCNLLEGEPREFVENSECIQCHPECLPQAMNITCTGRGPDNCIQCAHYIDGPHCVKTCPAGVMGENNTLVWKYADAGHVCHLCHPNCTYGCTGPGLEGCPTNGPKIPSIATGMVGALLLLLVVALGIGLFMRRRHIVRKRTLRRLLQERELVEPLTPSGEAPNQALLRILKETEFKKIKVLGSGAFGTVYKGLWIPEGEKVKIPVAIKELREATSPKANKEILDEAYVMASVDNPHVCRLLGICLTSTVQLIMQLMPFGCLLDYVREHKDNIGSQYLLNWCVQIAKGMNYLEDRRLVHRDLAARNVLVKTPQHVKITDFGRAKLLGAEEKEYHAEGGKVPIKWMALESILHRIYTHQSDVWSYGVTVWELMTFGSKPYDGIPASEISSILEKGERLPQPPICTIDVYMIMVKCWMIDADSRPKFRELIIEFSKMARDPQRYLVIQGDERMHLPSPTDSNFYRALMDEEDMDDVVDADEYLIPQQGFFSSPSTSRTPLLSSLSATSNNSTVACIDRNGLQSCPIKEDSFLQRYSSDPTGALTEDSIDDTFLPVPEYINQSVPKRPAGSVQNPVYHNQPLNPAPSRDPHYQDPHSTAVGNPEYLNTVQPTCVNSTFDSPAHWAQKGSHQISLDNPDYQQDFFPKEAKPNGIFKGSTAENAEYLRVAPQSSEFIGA

Structure (SMILES) | IC50 [1] | IC50 [2] | IC50 [3]
C=CC(=O)Nc1cc(Nc2nccc(-c3cn(C)c4ccccc34)n2)c(OC)cc1N1CC[C@@H]2CN(C)C[C@@H]21 [Example 41, N-(2-{(3aR,6aR)-5-Methyl-2,3,3a,4,6,6a-hexahydropyrrolo[3,4-b]pyrrol-1-yl}-4-methoxy-5-{[4-(1-methylindol-3-yl)pyrimidin-2-yl]amino}phenyl)prop-2-enamide] | 1840 nM | 29.5 nM | 28.6 nM
C=CC(=O)Nc1cc(Nc2nccc(-c3cnn4ccccc34)n2)c(OC)cc1N1CC(N(C)C)C1 [Example 53, N-{2-(3-Dimethylaminoazetidin-1-yl)-4-methoxy-5-[(4-pyrazolo[1,5-a]pyridin-3-ylpyrimidin-2-yl)amino]phenyl}prop-2-enamide] | 2640 nM | 28.2 nM | 35.4 nM
C=CC(=O)Nc1cc(Nc2nccc(-c3cn(C)c4ccccc34)n2)c(OC)cc1N(C)CCNC [Example 60, N-(4-Methoxy-5-{[4-(1-methylindol-3-yl)pyrimidin-2-yl]amino}-2-[methyl-(2-methylaminoethyl)amino]phenyl)prop-2-enamide] | 624 nM | 48.9 nM | 14.6 nM
C=CC(=O)Nc1cc(Nc2nccc(-c3cnn4ccccc34)n2)c(OC)cc1N1CC[C@@H](N(C)C)C1 [Example 52, N-{2-[(3R)-3-Dimethylaminopyrrolidin-1-yl]-4-methoxy-5-[(4-pyrazolo[1,5-a]pyridin-3-ylpyrimidin-2-yl)amino]phenyl}prop-2-enamide] | 1400 nM | 15 nM | 26 nM
C=CC(=O)Nc1cc(Nc2nccc(-c3cn(C)c4ccccc34)n2)c(OC)cc1N1CC2(CCCN2C)C1 [Example 49, N-(4-Methoxy-2-{8-methyl-2,8-diazaspiro[3.4]octan-2-yl}-5-{[4-(1-methylindol-3-yl)pyrimidin-2-yl]amino}phenyl)prop-2-enamide] | 3090 nM | 51 nM | 74.2 nM
C=CC(=O)Nc1cc(Nc2nccc(-c3cnn4c3CCCC4)n2)c(OC)cc1N1CC[C@@H](N(C)C)C1 [Example 44, N-(2-{(3R)-3-Dimethylaminopyrrolidin-1-yl}-4-methoxy-5-{[4-(4,5,6,7-tetrahydropyrazolo[1,5-a]pyridin-3-yl)pyrimidin-2-yl]amino}phenyl)prop-2-enamide] | 3640 nM | 25.6 nM | 33.3 nM
C=CC(=O)Nc1cc(Nc2nccc(-c3cnn4ccccc34)n2)c(OC)cc1N1CC2(CCCN2C)C1 [Example 56, N-{4-Methoxy-2-[8-methyl-2,8-diazaspiro[3.4]octan-2-yl]-5-[(4-pyrazolo[1,5-a]pyridin-3-ylpyrimidin-2-yl)amino]phenyl}prop-2-enamide] | 3500 nM | 29.2 nM | 44.3 nM
C=CC(=O)Nc1cc(Nc2nccc(-c3cnn4c3CCCC4)n2)c(OC)cc1C1=CCN(C)CC1 [Example 45, N-(4-Methoxy-2-{1-methyl-3,6-dihydro-2H-pyridin-4-yl}-5-{[4-(4,5,6,7-tetrahydropyrazolo[1,5-a]pyridin-3-yl)pyrimidin-2-yl]amino}phenyl)prop-2-enamide] | 7400 nM | 41 nM | 110 nM
C=CC(=O)Nc1cc(Nc2nccc(-c3cn(C)c4ccccc34)n2)c(OC)cc1C1=CCN(C)CC1 [Example 48, N-(4-Methoxy-2-{1-methyl-3,6-dihydro-2H-pyridin-4-yl}-5-{[4-(1-methylindol-3-yl)pyrimidin-2-yl]amino}phenyl)prop-2-enamide] | 1580 nM | 31 nM | 39.9 nM
C=CC(=O)Nc1cc(Nc2ncc(Cl)c(-c3cnn4ccccc34)n2)c(OC)cc1C1=CCN(C)CC1 [Example 9, N-{5-[(5-Chloro-4-pyrazolo[1,5-a]pyridin-3-ylpyrimidin-2-yl)amino]-4-methoxy-2-[1-methyl-3,6-dihydro-2H-pyridin-4-yl]phenyl}prop-2-enamide] | 874 nM | 2.82 nM | 9.96 nM
C=CC(=O)Nc1cc(Nc2ncc(Cl)c(-c3cnn4ccccc34)n2)c(OC)cc1N1CC[C@H](N(C)C)C1 [Example 12, N-{5-[(5-Chloro-4-pyrazolo[1,5-a]pyridin-3-ylpyrimidin-2-yl)amino]-2-[(3S)-3-dimethylaminopyrrolidin-1-yl]-4-methoxyphenyl}prop-2-enamide] | 1390 nM | 5.82 nM | 36.1 nM

Now those with a lower IC50 [1], led by results:

IC50 [1] | IC50 [2] | IC50 [3] | Structure (SMILES)
462 nM | 7.71 nM | 13 nM | C=CC(=O)Nc1cc(Nc2nccc(-c3cnn4ccccc34)n2)c(OC)cc1C1=CCN(C)CC1 [Example 51, N-{4-Methoxy-2-[1-methyl-3,6-dihydro-2H-pyridin-4-yl]-5-[(4-pyrazolo[1,5-a]pyridin-3-ylpyrimidin-2-yl)amino]phenyl}prop-2-enamide]
510 nM | 1.6 nM | 12.7 nM | C=CC(=O)Nc1cc(Nc2ncc(Cl)c(-c3cnn4ccccc34)n2)c(OC)cc1N1CC[C@@H](N(C)C)C1 [Example 4, N-{5-[(5-Chloro-4-pyrazolo[1,5-a]pyridin-3-ylpyrimidin-2-yl)amino]-2-[(3R)-3-dimethylaminopyrrolidin-1-yl]-4-methoxyphenyl}prop-2-enamide]
28.2 nM | 3.02 nM | 2.27 nM | C=CC(=O)Nc1cc(Nc2nccc(-c3c[nH]c4ccccc34)n2)c(OC)cc1N(C)CCN(C)C [Example 59, N-(2-[2-Dimethylaminoethyl-methylamino]-5-{[4-(1H-indol-3-yl)pyrimidin-2-yl]amino}-4-methoxyphenyl)prop-2-enamide]
161 nM | 0.682 nM | 3.26 nM | C=CC(=O)Nc1cc(Nc2ncc(Cl)c(-c3cnn4ccccc34)n2)c(OC)cc1N1CC[C@@H]2CN(C)C[C@@H]21 [Example 7, N-{2-[(3aR,6aR)-5-Methyl-2,3,3a,4,6,6a-hexahydropyrrolo[3,2-c]pyrrol-1-yl]-5-[(5-chloro-4-pyrazolo[1,5-a]pyridin-3-ylpyrimidin-2-yl)amino]-4-methoxyphenyl}prop-2-enamide]
10.9 nM | 0.238 nM | 0.581 nM | C=CC(=O)Nc1cc(Nc2ncc(Cl)c(-c3c[nH]c4ccccc34)n2)c(OC)cc1N(C)CCN(C)C [Example 25, N-(5-{[5-Chloro-4-(1H-indol-3-yl)pyrimidin-2-yl]amino}-2-{2-dimethyl-aminoethyl-methylamino}-4-methoxyphenyl)prop-2-enamide]
41.2 nM | 1.5 nM | 1.29 nM | C=CC(=O)Nc1cc(Nc2ncc(Cl)c(-c3c[nH]c4ccccc34)n2)c(OC)cc1C1=CCN(C)CC1 [Example 2, N-(5-{[5-Chloro-4-(1H-indol-3-yl)pyrimidin-2-yl]amino}-4-methoxy-2-[1-methyl-3,6-dihydro-2H-pyridin-4-yl]phenyl)prop-2-enamide]
